According to patent US9073975B2, “Cyclic peptides, their preparation and their use as inhibitors of the platelet adhesion” (SANOFI, priority 2010, dated 2015):
Starred links: 1 amine or outer side, 2 acyl side, 3 side chain; linkers in the order of their positions; H or OH if unused. Non-standard residues stand in square brackets, D forms with d. Residues, ends and D or L forms follow the SMILES beside them. NH(CH2)9CO = O=C(CCCCCCCCCN[*:1])[*:2]; Nle = CCCC[C@H](N)C(=O)O; Dap = NC[C@H](N)C(=O)O; Ac3c = NC1(C(=O)O)CC1; Aib = CC(C)(N)C(=O)O; Ahp = NCCCCCCC(=O)O; Ava = NCCCCC(=O)O; GABA = NCCCC(=O)O

biological target: T1, recombinant human vWF-A1 domain (Homo sapiens, UniProt P07359); experiment: Static human platelet adhesion to recombinant human vWF-A1 domain; assay type: cell-based; conditions: washed calcein AM labeled human platelets, static conditions, 1.5 h adhesion; read-out: Activity (IC50 for inhibition of the binding of platelets to vWF A1 domain)
T1 construct: whole blood drawn from voluntary donors; made in house; host or cells: E. coli (vWF-A1); washed platelets from human donor blood (GPIb, endogenous)
T1 sequence (P07359 17-652): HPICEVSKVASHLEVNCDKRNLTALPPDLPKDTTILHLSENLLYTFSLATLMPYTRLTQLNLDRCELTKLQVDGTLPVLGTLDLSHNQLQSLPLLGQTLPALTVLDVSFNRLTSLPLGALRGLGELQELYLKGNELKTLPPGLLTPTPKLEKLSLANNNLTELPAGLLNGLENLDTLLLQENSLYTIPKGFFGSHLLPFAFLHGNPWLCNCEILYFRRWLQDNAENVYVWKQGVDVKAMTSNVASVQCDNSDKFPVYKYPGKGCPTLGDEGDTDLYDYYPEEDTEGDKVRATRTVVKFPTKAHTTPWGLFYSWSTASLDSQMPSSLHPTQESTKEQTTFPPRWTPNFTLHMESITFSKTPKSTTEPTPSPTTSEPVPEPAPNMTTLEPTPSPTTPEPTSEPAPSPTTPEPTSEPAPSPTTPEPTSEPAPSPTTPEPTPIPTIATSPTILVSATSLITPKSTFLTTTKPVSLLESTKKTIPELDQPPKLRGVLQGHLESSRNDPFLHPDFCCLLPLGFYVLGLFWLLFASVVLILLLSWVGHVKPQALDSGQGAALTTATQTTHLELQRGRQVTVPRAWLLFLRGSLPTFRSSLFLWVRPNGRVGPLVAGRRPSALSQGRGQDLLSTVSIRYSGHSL
T1 sequence (P13224 26-206 partner): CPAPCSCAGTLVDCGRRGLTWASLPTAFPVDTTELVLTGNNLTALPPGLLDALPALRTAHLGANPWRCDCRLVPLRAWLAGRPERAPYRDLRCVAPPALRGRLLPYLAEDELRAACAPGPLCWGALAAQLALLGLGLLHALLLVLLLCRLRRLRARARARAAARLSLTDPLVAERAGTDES
T1 sequence (P14770 17-177 partner): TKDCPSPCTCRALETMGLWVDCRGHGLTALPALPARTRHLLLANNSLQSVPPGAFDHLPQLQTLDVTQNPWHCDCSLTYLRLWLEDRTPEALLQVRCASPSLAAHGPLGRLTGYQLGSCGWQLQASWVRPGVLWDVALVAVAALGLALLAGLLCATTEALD
Protocol: The activity of compounds of the formula I can be shown by procedures known in the art, for example by determining their inhibition of the binding of platelets to vWF A1 domain in an appropriate assay. To this end, assay plates can be coated with vWF-A1 domain. […] Then fluorescence-labeled thrombocytes are added and incubated for 90 minutes. In a complex washing procedure all non-bound thrombocytes are removed and the plates are measured, for example in a laser-based reader Acumen Explorer or a bulk reader like Spectramax. […] To assess the effect of compounds on the interaction of the GPIb complex on platelets with vWF, an assay system was used measuring binding of human platelets to recombinant human vWF-A1 domain under static conditions in the presence and absence of the compounds. […] Platelet rich plasma was carefully removed, transferred to a fresh container and spun down for 15 min at 120 g. Platelet rich plasma was carefully transferred again to fresh containers, PGE1 (0.5 μg/ml, Sigma) was added and the suspension was allowed to rest for 5 min. This was followed by another centrifugation step for 15 min at 360 g. The supernatant was discarded and the cell pellets were carefully resuspended in tyrode buffer (NaCl, 137 mM (Sigma S-3014); KCl, 2.7 mM (Sigma P-9541); NaHCO3,12 mM ([…] 31437); NaH2PO4×2H2O, 0.36 mM (Merck 6345); […] After 5 min of resting the suspension was spun down for 15 min at 300 g. The supernatant was discarded and the pellets were carefully resuspended in TBS buffer (Tris-HCl, 50 mM (Fluka 93371); NaCl, 120 mM (Sigma S-3014); KCl, 2.7 mM (Sigma P-9541); CaCl2, 0.05 mM (Sigma C-3306); MgCl2×6 H2O, 2 mM (Sigma M-2670); […] The platelet count was adjusted to 2×10^5 cells/μl, and the suspensions from individual donors were pooled at this stage. The platelets were allowed to rest for 30 min at room temperature before calcein AM (2.5 μM per 2×10^5 cells/μl (Molecular Probes C-3099)) was added. This was followed by 15 min incubation in the dark. Cells were diluted to 5×10^4 cells/μl and ReoPro (3 μg/ml (Centocor B. V., Leiden, N L)) was added, followed by a 10 min incubation period in the dark before adding the platelets to the assay plates. 96 well plates (Greiner hb, black, clear bottom, F, 655097) were coated with human recombinant vWF-A1 domain (1.5 μg/well, AA 475-706, expressed in E. coli) in Tris buffer (pH 7.4; Tris-HCl, 25 mM; NaCl, 150 mM) and incubated for 1 h at room temperature. After washing the wells 3× with TBS, blocking buffer (TBS with 5% BSA) was added followed by an incubation for 1 h. The wells were washed again 3× with TBS before 200 μl TBS were added to each well, preventing them from drying out. TBS was flicked out and serial dilutions of the test compound were added. The washed and calcein AM labeled thrombocytes were added to the wells (2.5×10^6 cells/well). Following an adhesion period of 1.5 h in the dark the wells were washed 3× with TBS. Measurement of fluorescence per well was performed in a SpectraMax M5 reader (Molecular Devices). From the raw data % inhibition and IC50 values were calculated.

IC50	SMILES
< 1 µM	CCCC[C@@H]1NC(=O)[C@H](CCCNC(=N)N)NC(=O)[C@H](CCC(=O)O)NC(=O)[C@H]([C@@H](C)O)NC(=O)CCCCCCNC(=O)[C@H](CC(C)C)NC(=O)[C@H](CC(N)=O)NC(=O)[C@H](Cc2c[nH]cn2)NC(=O)[C@H](CC(C)C)NC(=O)[C@H](C)NC1=O [Example 43, Cyclo[Leu-His-Asn-Leu-NH—(CH2)6—CO-Thr-Glu-Arg-Nle-Ala]] (cyclo(ALHNL[Ahp]TER[Nle]))
< 1 µM	COC[C@@H]1NC(=O)[C@H](CCCNC(=N)N)NC(=O)[C@H](CCC(=O)O)NC(=O)[C@H]([C@@H](C)O)NC(=O)CCCCCCNC(=O)[C@H](CC(C)C)NC(=O)[C@H](CC(N)=O)NC(=O)[C@H](Cc2c[nH]cn2)NC(=O)[C@H](CC(C)C)NC(=O)[C@H](C)NC1=O [Example 45, Cyclo[Leu-His-Asn-Leu-NH—(CH2)6—CO-Thr-Glu-Arg-Amp-Ala]] (cyclo(ALHNL[Ahp]TERS(Me)))
1 to 10 µM	CSCC[C@@H]1NC(=O)[C@H](CCCNC(=N)N)NC(=O)[C@H](CCC(=O)O)NC(=O)[C@H]([C@@H](C)O)NC(=O)CCCCNC(=O)CNC(=O)[C@H](CC(C)C)NC(=O)[C@H](CC(N)=O)NC(=O)[C@H](Cc2c[nH]cn2)NC(=O)[C@H](CC(C)C)NC(=O)[C@H](C)NC1=O [Example 46, Cyclo[Leu-His-Asn-Leu-Gly-NH—(CH2)4—CO-Thr-Glu-Arg-Met-Ala]] (cyclo(ALHNLG[Ava]TERM))
1 to 10 µM	CSCC[C@@H]1NC(=O)[C@H](CCCNC(=N)N)NC(=O)[C@H](CCC(=O)O)NC(=O)[C@H]([C@@H](C)O)NC(=O)CCCCCCCCCNC(=O)[C@H](CC(C)C)NC(=O)[C@H](CC(N)=O)NC(=O)[C@H](Cc2c[nH]cn2)NC(=O)[C@H](CC(C)C)NC(=O)[C@H](C)NC1=O [Example 47, Cyclo[Leu-His-Asn-Leu-NH—(CH2)9—CO-Thr-Glu-Arg-Met-Ala]] (cyclo(ALHNL[NH(CH2)9CO]TERM))
1 to 10 µM	CSCC[C@@H]1NC(=O)[C@H](CCCNC(=N)N)NC(=O)[C@H](CCC(=O)O)NC(=O)[C@H]([C@@H](C)O)NC(=O)CCCNC(=O)[C@H](CN)NC(=O)[C@H](CC(C)C)NC(=O)[C@H](CC(N)=O)NC(=O)[C@H](Cc2c[nH]cn2)NC(=O)[C@H](CC(C)C)NC(=O)[C@H](C)NC1=O [Example 49, Cyclo[Leu-His-Asn-Leu-Dpr-NH—(CH2)3—CO-Thr-Glu-Arg-Met-Ala]] (cyclo(ALHNL[Dap][GABA]TERM))
1 to 10 µM	CSCC[C@@H]1NC(=O)[C@H](CCCNC(=N)N)NC(=O)[C@H](CCC(=O)O)NC(=O)[C@H]([C@@H](C)O)NC(=O)[C@H](CC(N)=O)NC(=O)CCCNC(=O)[C@H](CC(C)C)NC(=O)[C@H](CC(N)=O)NC(=O)[C@H](Cc2c[nH]cn2)NC(=O)[C@H](CC(C)C)NC(=O)[C@H](C)NC1=O [Example 50, Cyclo[Leu-His-Asn-Leu-NH—(CH2)3—CO-Asn-Thr-Glu-Arg-Met-Ala]] (cyclo(ALHNL[GABA]NTERM))
1 to 10 µM	CSCC[C@@H]1NC(=O)[C@H](CCCNC(=N)N)NC(=O)[C@H](CCC(=O)O)NC(=O)[C@H]([C@@H](C)O)NC(=O)C(C)(C)NC(=O)CCCNC(=O)[C@H](CC(C)C)NC(=O)[C@H](CC(N)=O)NC(=O)[C@H](Cc2c[nH]cn2)NC(=O)[C@H](CC(C)C)NC(=O)[C@H](C)NC1=O [Example 53, Cyclo[Leu-His-Asn-Leu-NH—(CH2)3—CO-Aib-Thr-Glu-Arg-Met-Ala]] (cyclo(ALHNL[GABA][Aib]TERM))
1 to 10 µM	CSCC[C@@H]1NC(=O)[C@H](CCCNC(=N)N)NC(=O)[C@H](CCC(=O)O)NC(=O)[C@H]([C@@H](C)O)NC(=O)C2(CC2)NC(=O)CCCNC(=O)[C@H](CC(C)C)NC(=O)[C@H](CC(N)=O)NC(=O)[C@H](Cc2c[nH]cn2)NC(=O)[C@H](CC(C)C)NC(=O)[C@H](C)NC1=O [Example 54, Cyclo[Leu-His-Asn-Leu-NH—(CH2)3—CO-Ac3-Thr-Glu-Arg-Met-Ala]] (cyclo(ALHNL[GABA][Ac3c]TERM))
1 to 10 µM	CSCC[C@@H]1NC(=O)[C@H](CCCNC(=N)N)NC(=O)[C@H](CCC(=O)O)NC(=O)[C@H]([C@@H](C)O)NC(=O)CCCCCCNC(=O)[C@H](CC(C)C)NC(=O)[C@H](CC(N)=O)NC(=O)[C@H](Cc2c[nH]cn2)NC(=O)[C@H](CC(C)C)NC(=O)[C@H](CCC(N)=O)NC1=O [Example 55, Cyclo[Leu-His-Asn-Leu-NH—(CH2)6—CO-Thr-Glu-Arg-Met-Gln]] (cyclo([Ahp]TERMQLHNL))
